Reference: patent publication US7074447B2 (Laboratories Miret, S.A., priority 2001, dated 2006)

Assays:
Test in all cases: minimum inhibition concentration and Kull synergy index of LAE / potassium sorbate
Assay type in all cases: cell-based
Details in all cases: for SI, synergy index: <1 synergism, 1 addition, >1 antagonism
[1] = test system: Cladosporium cladosporioides (ATCC 16022)
Experimental: (§1) The invention is now explained by a number of examples. In these examples LAE and sorbate alone and in a number of different combinations have been investigated against a number of bacterial preparations. For the analysis usually an internal method was used. Conditions and medium were Mueller Hinton broth (pH 7.4) or (pH 5.0) for bacteria, Sabouraud broth (pH 5.8) for yeast and Sabouraud medium for moulds. The interaction of the two components of the antimicrobial mixture is calculated according to the method described by Kull et al. (Kull […]. and Mayer R. L., Applied Microbiology, 1961; 6:538-541). According to this method the so-called synergy index is calculated according to the following formula: Synergy index […]. […] The same method was used as described for example 1. […] Again the effects of the components alone and in combination have been calculated using the same method as described at Example 1.

[2] = test system: Enterobacter aerogenes (ATCC 13048)
Experimental: as §1

[3] = test system: Escherichia coli (ATCC 8739)
Experimental: as §1

[4] = test system: Penicillium camemberti (CECT 2267)
Experimental: as §1

**Q.** `CCCCCCCCCCCC(=O)N[C@@H](CCCNC(=N)N)C(=O)OCC.Cl` [LAE, L-arginine, N^α-lauroyl-ethylester monohydrochloride] was tested. Which “QLAE, minimum inhibition concentration of LAE as single antimicrobial” value ([1]; pH 5.0) did it give?
**A.** 58.5

**Q.** What about the “Qlae, minimum inhibition concentration of LAE in the mixture” value ([1]; pH 5.0) of the same molecule?
**A.** 58.5

**Q.** What about the Qlae/QLAE ([1]; pH 5.0) of the same molecule?
**A.** 1.00

**Q.** What about the “Qs, minimum inhibition concentration of potassium sorbate in the mixture” value (shortened to “Qs, minimum inhibition concentration”) ([1]; pH 5.0) of the same molecule?
**A.** 0

**Q.** And the Qs/QS ([1]; pH 5.0)?
**A.** 0.00

**Q.** What about the “SI, synergy index” value ([1]; pH 5.0) of the same molecule?
**A.** 1.00

**Q.** What about the “QLAE, minimum inhibition concentration of LAE as single antimicrobial” value ([1]; pH 7.4, aqueous solutions) of the same molecule?
**A.** 25.6

**Q.** And the “Qlae, minimum inhibition concentration of LAE in the mixture” value ([1]; pH 7.4, aqueous solutions)?
**A.** 25.6

**Q.** What about the Qlae/QLAE ([1]; pH 7.4, aqueous solutions) of the same molecule?
**A.** 1.00

**Q.** What about the “Qs, minimum inhibition concentration” value ([1]; pH 7.4, aqueous solutions) of the same molecule?
**A.** 0

**Q.** What about the Qs/QS ([1]; pH 7.4, aqueous solutions) of the same molecule?
**A.** 0.00

**Q.** And the “SI, synergy index” value ([1]; pH 7.4, aqueous solutions)?
**A.** 1.00

**Q.** What about the “QLAE, minimum inhibition concentration of LAE as single antimicrobial” value ([2]; pH 5.0) of the same molecule?
**A.** 21.5

**Q.** What about the “Qlae, minimum inhibition concentration of LAE in the mixture” value ([2]; pH 5.0) of the same molecule?
**A.** 21.5

**Q.** And the Qlae/QLAE ([2]; pH 5.0)?
**A.** 1.00

**Q.** What about the “Qs, minimum inhibition concentration” value ([2]; pH 5.0) of the same molecule?
**A.** 0

**Q.** What about the Qs/QS ([2]; pH 5.0) of the same molecule?
**A.** 0.00

**Q.** What about the “SI, synergy index” value ([2]; pH 5.0) of the same molecule?
**A.** 1.00

**Q.** And the “Qlae, minimum inhibition concentration of LAE in the mixture” value ([2]; pH 7.4, aqueous solutions)?
**A.** 68.2

**Q.** What about the “Qs, minimum inhibition concentration” value ([2]; pH 7.4, aqueous solutions) of the same molecule?
**A.** 0

**Q.** What about the Qs/QS ([2]; pH 7.4, aqueous solutions) of the same molecule?
**A.** 0.00

**Q.** What about the “SI, synergy index” value ([2]; pH 7.4, aqueous solutions) of the same molecule?
**A.** 1.00

**Q.** And the “QLAE, minimum inhibition concentration of LAE as single antimicrobial” value ([3]; pH 5.0)?
**A.** 21.5

**Q.** And the “Qlae, minimum inhibition concentration of LAE in the mixture” value ([3]; pH 5.0)?
**A.** 21.5

**Q.** And the Qlae/QLAE ([3]; pH 5.0)?
**A.** 1.00

**Q.** And the “Qs, minimum inhibition concentration” value ([3]; pH 5.0)?
**A.** 0

**Q.** And the Qs/QS ([3]; pH 5.0)?
**A.** 0.00

**Q.** And the “SI, synergy index” value ([3]; pH 5.0)?
**A.** 1.00

**Q.** And the “QLAE, minimum inhibition concentration of LAE as single antimicrobial” value ([3]; pH 7.4, aqueous solutions)?
**A.** 25.6

**Q.** What about the “Qlae, minimum inhibition concentration of LAE in the mixture” value ([3]; pH 7.4, aqueous solutions) of the same molecule?
**A.** 25.6

**Q.** And the Qlae/QLAE ([3]; pH 7.4, aqueous solutions)?
**A.** 1.00

**Q.** What about the “Qs, minimum inhibition concentration” value ([3]; pH 7.4, aqueous solutions) of the same molecule?
**A.** 0

**Q.** What about the Qs/QS ([3]; pH 7.4, aqueous solutions) of the same molecule?
**A.** 0.00

**Q.** And the “SI, synergy index” value ([3]; pH 7.4, aqueous solutions)?
**A.** 1.00

**Q.** And the “QLAE, minimum inhibition concentration of LAE as single antimicrobial” value ([4]; pH 5.0)?
**A.** 58.5

**Q.** What about the “Qlae, minimum inhibition concentration of LAE in the mixture” value ([4]; pH 5.0) of the same molecule?
**A.** 58.5

**Q.** What about the Qlae/QLAE ([4]; pH 5.0) of the same molecule?
**A.** 1.00

**Q.** And the “Qs, minimum inhibition concentration” value ([4]; pH 5.0)?
**A.** 0

**Q.** What about the Qs/QS ([4]; pH 5.0) of the same molecule?
**A.** 0.00

**Q.** What about the “SI, synergy index” value ([4]; pH 5.0) of the same molecule?
**A.** 1.00

**Q.** What about the “QLAE, minimum inhibition concentration of LAE as single antimicrobial” value ([4]; pH 7.4, aqueous solutions) of the same molecule?
**A.** 68.2

**Q.** And the “Qlae, minimum inhibition concentration of LAE in the mixture” value ([4]; pH 7.4, aqueous solutions)?
**A.** 68.2

**Q.** What about the Qlae/QLAE ([4]; pH 7.4, aqueous solutions) of the same molecule?
**A.** 1.00

**Q.** And the “Qs, minimum inhibition concentration” value ([4]; pH 7.4, aqueous solutions)?
**A.** 0

**Q.** And the Qs/QS ([4]; pH 7.4, aqueous solutions)?
**A.** 0.00

**Q.** What about the “SI, synergy index” value ([4]; pH 7.4, aqueous solutions) of the same molecule?
**A.** 1.00
